What all share (experiment): NCI anticancer screen, dose series, 48 h
The test system of test [1] is Hs-578T.
The subject of test [2] is SW-620.
The subject of test [3] is MDA-MB-435.
Test [4] concerns OVCAR-8.
In test [5] the test system is KM12.
Test [6] relates to SNB-75.
Test [7] deals with OVCAR-5.
For test [8], the system named is COLO 205.
The subject of test [9] is TK-10.
Test [10] has as its system SK-MEL-28.
The subject of test [11] is UACC-257.
Test [12] concerns M14.
Test [13] relates to MCF7.
Test [14] concerns MDA-N.
The subject of test [15] is SNB-19.
For test [16], the system named is SF-268.
Test [17] has as its system T47D.
Test [18] deals with RPMI-8226.
Test [19] deals with 786-0.
For test [20], the system named is HCC 2998.

Structures are written as SMILES.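 Each compound was tested at five concentrations against cells in 96-well plates for 48 hours. Here, GI50 denotes the concentration required for 50% inhibition of growth.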 Calls of active or inactive are those of the source. No stated cut-off is given here; in the data, active = GI50 up to about 1.1 µM and inactive = higher.

`Cc1cc(C)c2c(SCc3ccc(Cl)cc3Cl)nc(N)nc2n1`: the GI50 in test [1] was 37.8 µM (inactive); in test [2] it was > 100 µM (inactive); in test [3], 83 µM (inactive); in test [4], 28.9 µM (inactive); in [5], > 100 µM (inactive); in [6], 58.6 µM (inactive). The GI50 in test [7] was > 100 µM (inactive); in [8] it was 34.8 µM (inactive); in test [9], 17.6 µM (inactive); in [10], > 100 µM (inactive); in [11], 4.6 µM (inactive); in [12] it was 82.6 µM (inactive). Further, the GI50 in test [13] is 31.6 µM (inactive); in [14], > 100 µM (inactive); in test [15], 58.9 µM (inactive); in test [16], > 100 µM (inactive); in [17] it was 17.2 µM (inactive); in test [18], 60.7 µM (inactive). In addition, the GI50 in test [19] was 17.1 µM (inactive).

As to `Cc1cc(C(=O)CCCCOc2ccc(C3=NCCO3)cc2)c(C)n1C`, the GI50 was 98.2 µM (inactive) in [1]; 33.2 µM (inactive) in test [2]; 24.7 µM (inactive) in [3]; 33.2 µM (inactive) in test [4]; 38.5 µM (inactive) in test [5]; 21 µM (inactive) in [6]. The GI50 in [7] is 71.6 µM (inactive); in test [8], 52.4 µM (inactive); in [9], 44.9 µM (inactive); in test [10] it was 25.4 µM (inactive); in [11], 3.98 µM (inactive); in [12], 37.8 µM (inactive). Further, the GI50 is 33.3 µM (inactive) in test [13]; 28.1 µM (inactive) in test [14]; 25.1 µM (inactive) in test [15]; 52.1 µM (inactive) in test [16]; 23 µM (inactive) in [17]; 37.3 µM (inactive) in test [18]. For the same molecule, in test [19], the GI50 was 38.6 µM (inactive).

`N#CC12C(=O)NC(=O)C1(C#N)C1C=CC2CC1` (configuration not stated): the GI50 in test [1], in [2], in [3], in [4], in [5] and in test [6] was > 100 µM (inactive) throughout. For the same molecule, the GI50 in test [7], in [8], in [9], in test [10], in [11] and in test [12] was > 100 µM (inactive) throughout. In addition, the GI50 in test [13], in [14], in test [15], in [16], in test [17] and in test [18] was > 100 µM (inactive) throughout. Further, the GI50 in test [19] was > 100 µM (inactive).

Regarding `CCOC(=O)c1nc2ccc(C(F)(F)F)cc2nc1Oc1cc(OC)cc(OC)c1`, the GI50 in test [1] is 17 µM (inactive); in [2] it was > 100 µM (inactive); in [3], 77.6 µM (inactive); in [4], > 100 µM (inactive); in test [5], 36.8 µM (inactive); in [6], 21.4 µM (inactive). For the same molecule, the GI50 in [7], in [8], in [9], in test [10], in [11] and in test [12] was > 100 µM (inactive) throughout. Moreover, the GI50 in test [13] is > 100 µM (inactive); in test [14], > 100 µM (inactive); in [15] it was 68.9 µM (inactive); in test [16] it was 93.3 µM (inactive); in test [17], > 100 µM (inactive); in [18], > 100 µM (inactive). Also, the GI50 in test [19] was > 100 µM (inactive).

`C[N+](C)(C)C(C1=CCCC1=O)c1ccccc1` (configuration not stated): the GI50 in test [1] is 33.4 µM (inactive); in test [2], 21.5 µM (inactive); in test [3] it was 26.2 µM (inactive); in [4] it was 25 µM (inactive); in test [5], 19 µM (inactive); in [6] it was 52.8 µM (inactive). Also, the GI50 was > 100 µM (inactive) in test [7]; > 100 µM (inactive) in [8]; 48.5 µM (inactive) in test [9]; 30.3 µM (inactive) in test [10]; 22.8 µM (inactive) in test [11]; > 100 µM (inactive) in test [12]. In addition, the GI50 in test [13] was 21.8 µM (inactive); in test [14], 33.4 µM (inactive); in [15], > 100 µM (inactive); in test [16], 18.6 µM (inactive); in test [17], 43.8 µM (inactive); in test [18], 15.8 µM (inactive). In test [19], the GI50 was 19.7 µM (inactive).

On to `O=c1[nH][nH]c(=O)n1/N=C/c1ccccc1`, for which the GI50 in [1], in [2], in test [3], in test [4], in test [5] and in [6] was > 100 µM (inactive) in each case. Further, the GI50 in [7], in test [8], in [9], in test [10], in test [11] and in [12] was > 100 µM (inactive) each time. The GI50 in [13], in [14], in test [15], in test [16], in [17] and in test [18] was > 100 µM (inactive) throughout. For the same molecule, the GI50 in [19] was > 100 µM (inactive).

As to `COC[C@@H](C[C@H]1O[C@@](O)([C@H](O)[C@@H]2C[C@H](OC)[C@@H](O)CC/C=C(C)/C=C/[C@@H](O[C@@H]3O[C@@H](C)[C@H](OC)[C@@H](O)[C@@H]3O)[C@H](C)/C=C(C)/C=C(C)/C=C(\C)C(=O)O2)[C@H](C)[C@@H](O)[C@H]1C)O[C@H]1C[C@](C)(O)[C@@H](O[C@H]2C[C@@H](OC)[C@H](O)[C@@H](C)O2)C(C)O1` (some centres not stated), the GI50 in test [1] was 69 µM (inactive); in test [2] it was > 85.7 µM (inactive); in [3], > 89.1 µM (inactive); in test [4] it was 1.44 µM (inactive); in test [5], > 66.2 µM (inactive); in [7], > 100 µM (inactive). Besides, the GI50 in [8] was 0.221 µM (active); in [9], > 100 µM (inactive); in [10] it was > 67.8 µM (inactive); in [11] it was 0.0374 µM (active); in test [12] it was > 100 µM (inactive); in test [13], 0.0785 µM (active). Besides, the GI50 in test [14] is > 100 µM (inactive); in [16], > 40.8 µM (inactive); in [17] it was 0.188 µM (active); in test [18], 86.5 µM (inactive); in [20], > 80.2 µM (inactive); in test [19], > 100 µM (inactive).

Take `C[N+](C)(C)/C=N\c1cccc2nsnc12`: the GI50 in test [1], in test [3], in test [4], in test [6], in test [7] and in test [8] was > 100 µM (inactive) each time. Moreover, the GI50 in test [9], in [10], in test [11], in test [12], in test [13] and in test [14] was > 100 µM (inactive) throughout. In addition, the GI50 in test [15], in test [16], in test [17], in test [18] and in [19] was > 100 µM (inactive) in each case.

With `COC(=O)CC[C@@H](C)[C@H]1CC[C@H]2[C@@H]3CC[C@@H]4C[C@H](O)CC[C@]4(C)[C@H]3CC[C@]12C`, the GI50 in test [1] is 23.1 µM (inactive); in [2], 29.6 µM (inactive); in test [3] it was 16.7 µM (inactive); in test [4] it was 19 µM (inactive); in test [5] it was 17.5 µM (inactive); in test [6] it was 19.1 µM (inactive). Also, the GI50 in test [7] is 19.8 µM (inactive); in test [8] it was 19.5 µM (inactive); in [9] it was 20.3 µM (inactive); in test [10], 19 µM (inactive); in test [11], 14.8 µM (inactive); in [12], 18.5 µM (inactive). Also, the GI50 in test [13] was 18.3 µM (inactive); in test [14], 19.1 µM (inactive); in test [15] it was 21.6 µM (inactive); in test [16] it was 21.6 µM (inactive); in [17], 19.4 µM (inactive); in [18], 11.7 µM (inactive). Also, the GI50 in test [19] was 18.5 µM (inactive).

With `CCCCCCCCCCCC[C@@H](O)[C@H]1CC[C@H]([C@H]2CC[C@H]([C@H](O)CC[C@H](O)CCCCCCCC3=C[C@H](C)OC3=O)O2)O1`, the GI50 is 2.18 µM (inactive) in test [1]; 1.94 µM (inactive) in [2]; 1.77 µM (inactive) in test [3]; 1.82 µM (inactive) in test [4]; 1.44 µM (inactive) in [5]; 1.75 µM (inactive) in test [6]. Further, the GI50 was 1.69 µM (inactive) in [7]; 1.86 µM (inactive) in test [8]; 1.21 µM (inactive) in test [9]; 1.63 µM (inactive) in test [10]; 0.136 µM (active) in [11]; 1.64 µM (inactive) in test [12]. The GI50 was 1.15 µM (inactive) in test [13]; 1.9 µM (inactive) in [14]; 1.23 µM (inactive) in test [15]; 1.55 µM (inactive) in [16]; 3.4 µM (inactive) in test [17]; 1.2 µM (inactive) in [18]. In addition, in test [19], the GI50 was 2.4 µM (inactive).
